Test results as given in patent US20060124903A1, “Aerosol preparation comprising sealed container and enclosed therein aerosol composition containing marcolide compound” (Astellas Pharma Inc., priority 2003, published 2006).

What was measured:
[1] = Adsorptivity of tacrolimus to resinous material constituting valve part (FIG. 3); format: physicochemical
Text: FIG. 3 illustrates the adsorptivity of the active ingredient contained in the aerosol composition to each sample resinous material soaked in the aerosol composition.
The axis of ordinates designates the ratio of (remaining) active ingredient in the aerosol composition to the initial active ingredient therein when the percentage of the initial active ingredient contained in the aerosol composition is 100%.
The aerosol composition used in the test of FIG. 3 contains a 0.025 wt % macrolide compound. To be concrete, the aerosol composition is a solution that contains 2.5 mg tacrolimus serving as the active ingredient, 10 ml liquefied hydrofluoroalkane (HFA-134a) serving as the propellant, and a little amount of lubricant normally used for metered dose inhalation.
In the test of FIG. 3, each of the sample resinous materials is formed into a circular shape having a 5 mm diameter (a 39 mm^2 surface area), similar to the form of first gasket 11. Each of the sample resinous materials is soaked in the aerosol composition solution under the condition of 75% relative humidity and 50° C. for a month. […]

[2] = Content of tacrolimus solvable in liquefied hydrofluoroalkane; format: physicochemical; conditions: liquefied hydrofluoroalkane (HFA-134a, HFA-227)

Molecule | ratio of (remaining) active ingredient in the aerosol composition to the initial active ingredient [1] | content of the tacrolimus solvable in the liquefied hydrofluoroalkane [2]
polyethylene | scarcely reduced | –
polypropylene | scarcely reduced | –
C=CC[C@@H]1/C=C(\C)C[C@H](C)C[C@H](OC)[C@H]2O[C@@](O)(C(=O)C(=O)N3CCCC[C@H]3C(=O)O[C@H](/C(C)=C/[C@@H]3CC[C@@H](O)[C@H](OC)C3)[C@H](C)[C@@H](O)CC1=O)[C@H](C)C[C@@H]2OC [tacrolimus] | – | not more than 0.15 wt %
